Experimental data: paper PMC7034072, “Discovery of small molecule inhibitors of Leishmania braziliensis Hsp90 chaperone” (Journal of Enzyme Inhibition and Medicinal Chemistry, 2020)

What was measured:
[1] = system: promastigote form of L. braziliensis; assay: Cell viability assay (MTT/PMS), single concentration; assay type: cell-based; conditions: L. braziliensis promastigotes; for Cell viability / reduced cell viability: 200 μM/well; for Cell viability: MTT/PMS, Yes = leishmanicidal activity; for reduced cell viability: after 72 h
Description: The leishmanicidal activity of the compounds was tested in vitro against the promastigote form of L. braziliensis applying 200 μM/well, (with a total of 0.5% DMSO) into 90 μL of culture. The concentration of L. braziliensis (MHOM/BR/1973/M2269) was adjusted to 10^7 cells/mL. Amphotericin (100 μM/well) was used as positive control, and 0.5% DMSO as negative control.
The plates were incubated at room temperature (RT) for 72 h. After this period, the viability of the promastigotes was verified via MTT (3–(4, 5-Dimethylthiazol-2-yl)-2, 5-Diphenyltetrazolium Bromide) colorimetric assay. MTT/PMS 11.1 μL/well solution (MTT = 5 mg/mL; Phenazine methosulfate-PMS = 0.22 mg/mL) was added, and the plate was incubated at RT for 4 h, at 150 RPM, protected from light. Formazan crystals were then solubilised by adding 100 μL/well of a solubilisation solution containing 7% SDS, 10 mM HCl and 30% DMSO. The mixture was incubated at RT for 90 min at 150 RPM protected from light. Wells containing the medium and the compounds or DMSO without MTT were used as blank controls. The absorbance was quantified in a plate reader (Biotek Synergy HT) at 570 nm.
The cell viability percentages were calculated by the following equation: (1) Cell viability %= AT−AB/AU−AB ×100 where AT was an averaged absorbance from treated samples, AB blank absorbance and AU was an averaged absorbance from negative control.

[2] = system: LbHsp90 and LbHsp90N recombinant proteins; assay: Differential scanning fluorimetry (thermal shift assay); assay type: binding, L. braziliensis; conditions: DSF; for Thermal shift: inclusion criterion Tm variation greater or equal to ± 2 °C in LbHsp90 or LbHsp90N, Yes/No
Description: The interaction of Hsp90 proteins with different compounds was monitored through the melting temperature (Tm) of each protein in the presence of a fixed concentration of the target compound by differential scanning fluorimetry (DSF) also referred as thermal shift assay. A final concentration of 10 µM of dimeric LbHsp90 and 20 µM of monomeric LbHsp90N in 40 mM Hepes buffer (pH 7.5) containing 100 mM KCl were used. The DMSO concentration in each sample was fixed at 2.5% (v/v). Prior to the readings, the samples were incubated for 30 min on ice. The fluorophore Sypro Orange (Life Technologies) was used as fluorescent probe. The experiments were performed at a thermocycler CFX96 Touch Real Time PCR Detection System (BioRad) and the data were analysed using the CFX Manager software (BioRad). As positive controls, 100 µM of GA and Radicicol (RDC) were used.

[3] = system: promastigote forms of L. braziliensis; assay: In vitro IC50 determination (leishmanicidal activity, MTT/PMS); assay type: cell-based; conditions: promastigotes, 72 h, RT
Description: Amphotericin 100 μM/well and 0.5% DMSO were used as positive and negative control, respectively. The plates were incubated at RT for 72 h. After this, the viability of the promastigotes was verified by MTT/PMS colorimetric assay, as described above. In vitro leishmanicidal activity, expressed as IC50, was determined using GraphPad Prism 5 software according to the following equation: (2) y= Amin + Amax−Amin/1+10^logIC50 −x*Hillslope where Amin and Amax are, respectively, the minimum and maximum activities obtained, x is the ligand concentration and Hill Slope is the parameter that describes the steepness of the curve.
The selectivity index parameter was obtained by the ratio of compound IC50 against mammalian cells and compound IC50 against promastigote cells.

[4] = system: Balb-c 3T3 clone A31 mouse fibroblasts; assay: Cytotoxic assay (MTT); assay type: cell-based; conditions: Balb-c 3T3 mouse fibroblasts, 72 h, 37 °C
Description: Compounds cytotoxicity was evaluated in 100 μL of Balb-c 3T3 cone A31 mouse fibroblasts (10^5 cells/mL) into a 96-well plate, incubated for 24 h at 37 °C to become adhered. After this period, the medium was washed and 100 μL of each compound was added to the culture medium (concentration ranging from 1 to 200 μM/well, with a total of 0.5% DMSO) in quadruplicate. Rapamycin was used as a positive control, and 0.5% DMSO was used as negative control. The plates were incubated for 72 h at 37 °C. After this, the viability of Balb-c 3T3 cells was evaluated by MTT colorimetric assay, as described previously.

hHsp90βN = biological target: T1, hHsp90βN (Homo sapiens, UniProt P08238); assay: Tryptophan fluorescence quenching interaction assay; assay type: binding; conditions: N-terminal domain; for Kd: read-out: KDapp hHsp90βN
T1 construct: N-terminal domain construct (Hsp90βN – residues 1–223); His-tag (cleaved yes); made in house; host or cells: Escherichia coli BL21(DE3)
Description: (§1) Two µM of protein in 40 mM Hepes buffer (pH 7.5), 100 mM KCl, was incubated for 30 min on ice with increasing concentrations of the compounds diluted in DMSO. […] The samples were excited at 280 nm and the emission was collected in the 300–400 nm range, in a 1.0 × 0.2 cm optical path cuvette, on an F-4500 Fluorescence Spectrophotometer (Hitachi). The fluorescence quenching was analysed at the maximum emission wavelength in the absence of ligand. The determination of the apparent dissociation constant (KDapp) was performed by fitting the fluorescence values obtained for each compound concentration according to a dose-response model through the Equation (3): (3) y = Fmin + (Fmax−Fmin)/(1+10^(logKD− [ligand])) where Fmin and Fmax are the minimum and maximum fluorescence intensity and [ligand] is the compound concentration used in the assay, according to the GraphPad Prism 5 software. The fluorescence intensities were corrected by inner filter effects as previously described.

hHsp90β [5] = biological target: T2, hHsp90β (Homo sapiens, UniProt P08238); assay: as above; assay type: binding; conditions: for Kd: read-out: KDapp hHsp90β
T2 construct: made in house; host or cells: Escherichia coli BL21(DE3)
Description: as §1

LbHsp90 [6] = biological target: T3, LbHsp90 (Leishmania braziliensis, UniProt A4HL70); assay: as above; assay type: binding; conditions: for Kd: full-length, tryptophan fluorescence quenching, read-out: KDapp LbHsp90
Description: as §1

hHsp90β [7] = biological target: T2, hHsp90β; assay: ATPase activity inhibition assay (EnzChek Pi quantification); assay type: biochemical; conditions: 50 μM compound, 2 μM enzyme, 2.5 mM ATP
Description: (§2) The ATPase activity of LbHsp90 and hHsp90β was evaluated spectrophotometrically through inorganic phosphate (Pi) quantification following ATP hydrolysis, by the EnzChek™ assay kit (Invitrogen®) as previous described[31]^,[34]. Briefly, a 2 µM solution of LbHsp90 and hHsp90β enzymes was prepared in 150 mM NaCl, 5 mM MgCl2 and 20 mM Tris-HCl, pH 7.5, and incubated with ATP (concentration range 0–5 mM) for 60 min at 37 °C. Then, the chromogenic substrate 2-amino-6-mercapto 7-methyl purine riboside (MESG) and the purine nucleoside phosphorylase (PNP) were added and the resulting reaction mixture was incubated for 30 min at 37 °C. The assays were performed in a 96-well plate and kinetic parameters determined by Michaelis–Menten fitting using GraphPad Prism 6 software.
(§3) Initial screenings were performed using 50 μM compound concentration in a reaction mixture consisting of 2 μM enzyme and 2.5 mM ATP. After 1 h incubation at 37 °C, MESG and PNP were added. The amount of Pi was estimated after 30 min incubation at 37 °C. […] A compound concentration ranging from 1 to 75 μM was included in the reaction mixture and Pi quantification performed as previously described (measurements were performed in triplicate). IC50 values were determined by non-linear regression data fitting (using GraphPad Prism 6 software).

LbHsp90 [8] = biological target: T3, LbHsp90; assay: as above; assay type: biochemical; conditions: compound 1 to 75 μM, triplicate; read-out: IC50 LbHsp90 ATPase activity inhibition
Description: as §2
as §3, with “The inhibitory activity against LbHsp90 and hHsp90β of compounds showing interaction in DSF assays (namely Glb08, Glb15, Gl23, Glb25 and Glb27) was determined using spectrophotometric ATPase activity assays as described above. Initial” for “Initial”, “°C. GA was used as reference compound, reporting 100% ATPase activity inhibition (at 50 μM).” for “°C.”

[9] = full-length, tryptophan fluorescence quenching

T3 sequence (A4HL70 entry or part of it): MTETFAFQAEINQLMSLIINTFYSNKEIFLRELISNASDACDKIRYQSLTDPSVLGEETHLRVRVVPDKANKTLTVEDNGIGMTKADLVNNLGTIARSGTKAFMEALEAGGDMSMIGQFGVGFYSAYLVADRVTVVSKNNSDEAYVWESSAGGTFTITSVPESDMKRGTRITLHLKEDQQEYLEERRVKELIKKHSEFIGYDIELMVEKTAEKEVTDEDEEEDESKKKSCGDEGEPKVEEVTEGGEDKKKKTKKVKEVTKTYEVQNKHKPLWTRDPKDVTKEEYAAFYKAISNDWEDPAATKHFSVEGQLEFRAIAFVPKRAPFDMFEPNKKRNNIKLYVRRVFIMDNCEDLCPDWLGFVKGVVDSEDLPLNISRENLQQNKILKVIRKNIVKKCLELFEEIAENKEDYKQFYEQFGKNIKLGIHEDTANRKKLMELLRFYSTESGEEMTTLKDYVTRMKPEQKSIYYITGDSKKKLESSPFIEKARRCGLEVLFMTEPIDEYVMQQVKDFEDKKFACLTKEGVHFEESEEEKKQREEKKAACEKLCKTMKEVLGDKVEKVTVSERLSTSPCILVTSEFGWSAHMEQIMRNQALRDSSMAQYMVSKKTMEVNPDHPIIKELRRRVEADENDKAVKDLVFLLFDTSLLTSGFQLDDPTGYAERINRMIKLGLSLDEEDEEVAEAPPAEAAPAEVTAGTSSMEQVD
T1 sequence (P08238 1-223): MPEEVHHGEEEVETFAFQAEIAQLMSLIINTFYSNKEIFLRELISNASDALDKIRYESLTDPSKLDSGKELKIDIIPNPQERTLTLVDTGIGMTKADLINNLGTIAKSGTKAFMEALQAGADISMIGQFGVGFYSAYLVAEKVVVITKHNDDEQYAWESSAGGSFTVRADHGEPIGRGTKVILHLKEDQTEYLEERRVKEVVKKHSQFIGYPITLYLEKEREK
T2 sequence (P08238 whole entry): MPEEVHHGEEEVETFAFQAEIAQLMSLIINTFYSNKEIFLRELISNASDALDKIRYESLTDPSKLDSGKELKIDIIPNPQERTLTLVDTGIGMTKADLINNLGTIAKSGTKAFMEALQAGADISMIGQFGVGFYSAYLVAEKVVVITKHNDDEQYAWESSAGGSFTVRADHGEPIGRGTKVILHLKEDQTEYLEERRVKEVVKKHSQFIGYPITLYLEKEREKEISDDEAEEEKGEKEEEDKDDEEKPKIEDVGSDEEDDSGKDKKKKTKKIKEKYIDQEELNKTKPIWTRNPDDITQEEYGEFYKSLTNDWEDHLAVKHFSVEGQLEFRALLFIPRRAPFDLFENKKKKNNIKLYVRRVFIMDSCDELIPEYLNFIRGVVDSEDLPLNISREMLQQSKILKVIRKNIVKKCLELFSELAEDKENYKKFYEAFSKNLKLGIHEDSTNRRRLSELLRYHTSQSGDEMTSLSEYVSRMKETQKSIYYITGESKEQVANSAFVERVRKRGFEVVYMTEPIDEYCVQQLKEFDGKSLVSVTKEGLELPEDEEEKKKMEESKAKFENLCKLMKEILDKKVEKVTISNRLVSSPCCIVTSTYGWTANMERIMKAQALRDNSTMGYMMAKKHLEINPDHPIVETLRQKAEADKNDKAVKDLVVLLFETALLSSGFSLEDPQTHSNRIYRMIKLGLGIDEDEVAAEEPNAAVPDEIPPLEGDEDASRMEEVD

With `C[C@@H]1[C@H](O)[C@@H](C)/C=C/C=C/C=C/C=C/C=C/C=C/C=C/[C@H](O[C@@H]2O[C@H](C)[C@@H](O)[C@H](N)[C@@H]2O)C[C@@H]2O[C@](O)(C[C@@H](O)C[C@@H](O)[C@H](O)CC[C@@H](O)C[C@@H](O)CC(=O)O[C@H]1C)C[C@H](O)[C@H]2C(=O)O` [Amphotericin, reference compound] the killing activity ([1]; positive control, 100 μM/well, 72 h) was “more than 95%”.
With `NC(=O)c1ccc(-c2nccc3occc23)cc1` [Glb01] the Thermal shift [2] was “No” and the Cell viability ([1]; 72 h) was “No”.
With `CCC(=O)NCc1cccc(-c2ccnc3[nH]ccc23)c1` [Glb02] the Thermal shift [2] was “positive outcomes and Yes” and the Cell viability ([1]; 72 h) was “No”.
`NC(=O)Nc1cccc(C(=O)OCc2ccccc2C(F)(F)F)c1` [Glb04] was tested, and the Thermal shift [2] was “No” and the Cell viability ([1]; 72 h) was “No”.
For `NC(=O)c1ccc(C(=O)N2CCc3ccccc32)cc1` [Glb05], the Thermal shift [2] was “No” and the Cell viability ([1]; 72 h) was “No”.
For `CS(=O)(=O)N1CCN(c2ccc(C(N)=O)cc2)CC1` [Glb06], the Thermal shift [2] was “No” and the Cell viability ([1]; 72 h) was “No”.
For `NC(=O)c1cn(Cc2cccc3cccnc23)nc1-c1ccccc1` [Glb07], the Thermal shift [2] was “No” and the Cell viability ([1]; 72 h) was “No”.
For `CC(C)(C)c1cc(CSC(=N)N)cc(C(C)(C)C)c1O` [Glb11], the Thermal shift [2] was “positive outcomes and Yes” and the Cell viability ([1]; 72 h) was “No”.
In the case of `Nc1nc(Cc2ccccc2)n[nH]1` [Glb12], the Thermal shift [2] is reported as “No” and the Cell viability ([1]; 72 h) is reported as “No”.
In the case of `Cn1cc(-c2ccc(F)cc2)c2nc[nH]c(=O)c21` [Glb13], the Thermal shift [2] is reported as “No” and the Cell viability ([1]; 72 h) is reported as “No”.
For `N=C(N)NCc1cn(-c2ccccc2)nc1-c1ccccc1` [Glb14], the Thermal shift [2] was “No”, the IC50 [3] was 30 ± 1 µM and the IC50 [4] was greater than 200 µM. The Cell viability ([1]; 72 h) was “Yes” and the reduced cell viability [1] was “more than 60%”.
In the case of `N=C(N)NCc1ccc(Oc2ccc(F)cc2)cc1` [Glb16], the Thermal shift [2] is reported as “positive outcomes and Yes”, the IC50 [3] is reported as 12 ± 2 µM and the IC50 [4] is reported as 23 ± 1 µM. The Cell viability ([1]; 72 h) was “Yes” and the reduced cell viability [1] was “more than 60%”.
For `Cc1cccc(Oc2ccccc2CNC(=N)N)c1` [Glb17], the “KDapp hHsp90βN” value (hHsp90βN) was “Ambiguous^#”, the “KDapp hHsp90β” value (hHsp90β [5]; [9]) was “Ambiguous^#” and the “tryptophan fluorescence quenching (qualitative)” value (hHsp90β [5]; hHsp90β constructions) was “did not induce tryptophan fluorescence quenching”. The “tryptophan fluorescence quenching (qualitative)” value (LbHsp90 [6]; LbHsp90 constructions) was “did not induce tryptophan fluorescence quenching”, the Thermal shift [2] was “No” and the IC50 [3] was 4 ± 1 µM. For the same compound, the IC50 [4] was 58 ± 1 µM, the Cell viability ([1]; 72 h) was “Yes” and the reduced cell viability [1] was “more than 60%”.
With `N=C(N)SCc1cc(=O)oc2cc3c(cc12)CCC3` [Glb18] the Thermal shift [2] was “No” and the Cell viability ([1]; 72 h) was “No”.
With `N=C(N)SCc1cccc(OCC(N)=O)c1` [Glb19] the Thermal shift [2] was “No” and the Cell viability ([1]; 72 h) was “No”.
In the case of `COc1ccc(C2(CNC(=N)N)CC2)cc1` [Glb20], the Thermal shift [2] is reported as “No” and the Cell viability ([1]; 72 h) is reported as “No”.
With `N=C(N)Nc1nc(-c2ccccc2)c(CC(=O)O)s1` [Glb21] the Thermal shift [2] was “No” and the Cell viability ([1]; 72 h) was “No”.
With `N=C(N)SCc1ccc(C(=O)O)cc1` [Glb22] the Thermal shift [2] was “No” and the Cell viability ([1]; 72 h) was “No”.
Work on `N=C(N)SCc1nc2ccccc2c(=O)n1-c1ccccc1` [Glb23] yielded a Kd (hHsp90βN) of 20 ± 30 µM, a Kd (hHsp90β [5]; [9]) of 21 ± 9 µM and a Kd (LbHsp90 [6]) of 26 ± 7 µM. The Thermal shift [2] was “No”, the IC50 [3] was greater than 100 µM and the IC50 [4] was 55 ± 1 µM. The Cell viability ([1]; 72 h) was “Yes”, the reduced cell viability [1] was “more than 60%” and the “percentage inhibition of hHsp90β ATPase activity” value (hHsp90β [7]) was “lower than 60%”. The IC50 (LbHsp90 [8]) was 35 ± 1 µM.
For `Cn1c(CSC(=N)N)c(Cl)c(=O)n1-c1ccccc1` [Glb24], the Thermal shift [2] was “No” and the Cell viability ([1]; 72 h) was “No”.
With `Cc1cc(CSC(=N)N)cc(C(C)(C)C)n1` [Glb26] the Thermal shift [2] was “No” and the Cell viability ([1]; 72 h) was “No”.
`N=C(N)NN=Cc1ccc2cccc(OCc3ccccc3)c2n1` [Glb27] showed a Kd (hHsp90βN) of 6 ± 2 µM, a Kd (hHsp90β [5]; [9]) of 5 ± 4 µM and a Kd (LbHsp90 [6]) of 7 ± 1 µM. The Thermal shift [2] was “positive outcomes and Yes”, the IC50 [3] was 11 ± 1 µM and the IC50 [4] was 13 ± 2 µM. For the same compound, the Cell viability ([1]; 72 h) was “Yes”, the reduced cell viability [1] was “more than 60%” and the “percentage inhibition of hHsp90β ATPase activity” value (hHsp90β [7]) was “lower than 60%”.
For `N=C(N)NCc1nn(Cc2ccccc2)c(=O)c2ccccc12` [Glb28], the Thermal shift [2] was “No”.
`C[C@@H]1C[C@H]2O[C@@H]2/C=C\C=C\C(=O)Cc2c(Cl)c(O)cc(O)c2C(=O)O1` [RDC, Radicicol, reference compound] was tested, and the ΔTm ([2]; 100 µM positive controls, protein stabilisation) was greater than 2.0 °C.
